Patent publication US8821887B2, “T-cell antigen peptide from allergen for stimulation of IL-10 production” (Circassia Limited, priority 2008, dated 2014)
Non-standard residues stand in square brackets, D forms with d. No end group written: not given here. 5‑aminobutyric acid = not defined here

System: PBMC's
Test: Cytokine release assay (IL-10 release from PBMCs, ELISA or multiplex bead array)
Type: cell-based
Settings: 5 days stimulation
Method: FIGS. 1 and 2 show mean IL-10 release (y axis, pg/ml) in response to the house dust mite peptides shown on the x axis, for a population of dust mite allergic individuals.
FIGS. 3 and 4 show mean IL-10 release (y axis, pg/ml) in response to the ragweed peptides shown on the x axis, for a population of ragweed allergic individuals.
Cytokine secretion profiles from PBMC's are analysed in response to the peptide stimulation using the peptides from Examples 1 and 2. Supernatants from the cytokine release assay were tested for the presence of IL-10, using either an ELISA assay or a multiplex bead array assay. A typical cytokine release assay requires 40×10^6 PBMC's per subject. In more detail, 250 μl of a 200 μg/ml solution of the appropriate antigen or peptide concentration is distributed into the appropriate wells of 48 well plates. Plates are then incubated in a humidified 5% CO2 incubator at 37° C. for a maximum of 4 hours. 250 μl of a 5×10^6 cell/ml PBMC suspension is then added to each well and the plates returned to the incubator for 5 days. Following stimulation, samples of culture supernatant are harvested for testing by ELISA or multiplex bead assay according to standard protocols.

[1] = house dust mite peptides of Example 1, PBMCs of dust mite allergic individuals, FIGS. 1 and 2
[2] = ragweed peptides of Example 2, PBMCs of ragweed allergic individuals, FIGS. 3 and 4

Row | Sequence | IL-10 production compared with other peptides [1] | IL-10 release compared with whole allergen [1] | IL-10 production compared with other peptides [2] | IL-10 release compared with whole allergen [2]
1 | DEFKNRFLMSAEAFE [HDM202] | higher IL-10 production than other peptides | higher IL-10 release than whole allergen | – | –
2 | ELVDSASQHG (Description of Artificial Sequence: Synthetic HDM03W peptide) | higher IL-10 production than other peptides | higher IL-10 release than whole allergen | – | –
3 | EQELVDSASQHG [HDM03V] | higher IL-10 production than other peptides | – | – | –
4 | GEAAIKLTSSAGVLS [RGW07] | – | – | higher IL-10 production than other peptides | –
5 | GESALSLTSSAGVLS [RGW07B] | – | – | higher IL-10 production than other peptides | –
6 | KGEAAIKLTSSAGVLSK [RGW07C] | – | – | higher IL-10 production than other peptides | –
7 | KGEAAIKLTSSAGVLSKK [RGW07D] | – | – | higher IL-10 production than other peptides | higher IL-10 release than whole allergen
8 | RNQSLDLAEQELVD ? ASQH (RNQSLDLAEQELVD[5‑aminobutyric acid]ASQH; not fully specified; reading uncertain) [HDM03E, character = 2-aminobutryic acid] | higher IL-10 production than other peptides | higher IL-10 release than whole allergen | – | –
9 | RNQSLDLAEQELVDSASQH (Description of Artificial Sequence: Synthetic HDM03D peptide) | higher IL-10 production than other peptides | – | – | –
